One experiment concerns the target T1, recombinant MARK4 (Homo sapiens, UniProt Q96L34).
T1 construct: made in house; host or cells: bacterial cells (Luria-Bertani broth, IPTG induction)
T1 sequence (Q96L34 1-752): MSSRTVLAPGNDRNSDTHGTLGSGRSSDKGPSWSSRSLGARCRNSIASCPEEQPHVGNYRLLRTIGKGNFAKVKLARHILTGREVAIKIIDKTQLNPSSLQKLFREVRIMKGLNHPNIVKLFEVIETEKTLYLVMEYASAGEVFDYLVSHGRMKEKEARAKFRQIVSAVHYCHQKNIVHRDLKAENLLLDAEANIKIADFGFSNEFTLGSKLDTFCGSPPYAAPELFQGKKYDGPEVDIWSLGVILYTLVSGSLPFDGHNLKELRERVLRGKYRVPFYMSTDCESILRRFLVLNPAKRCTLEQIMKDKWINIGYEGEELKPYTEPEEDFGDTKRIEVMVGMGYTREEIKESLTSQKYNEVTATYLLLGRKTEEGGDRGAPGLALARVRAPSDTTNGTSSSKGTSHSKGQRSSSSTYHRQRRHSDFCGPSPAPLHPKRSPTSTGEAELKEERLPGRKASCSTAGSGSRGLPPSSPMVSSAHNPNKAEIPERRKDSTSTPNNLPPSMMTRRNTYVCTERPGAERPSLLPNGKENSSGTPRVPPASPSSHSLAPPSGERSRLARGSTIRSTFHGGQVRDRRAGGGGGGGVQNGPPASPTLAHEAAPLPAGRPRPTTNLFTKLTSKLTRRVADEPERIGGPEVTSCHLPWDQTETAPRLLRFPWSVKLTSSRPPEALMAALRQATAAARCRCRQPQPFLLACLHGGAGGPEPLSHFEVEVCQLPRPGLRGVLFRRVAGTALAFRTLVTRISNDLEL
In words: Fluorescence binding (quenching, modified Stern-Volmer). The procedure: To determine the binding affinities of the synthesized acridones with MARK4, we used fluorescence emission spectra measurements. Protein sample was excited at 280 nm and emission was measured in 300–400 nm range with increasing concentrations of each acridone derivative (0–100 µM). A significant decrease in fluorescence intensity of MARK4 with increasing concentrations of each compound was fitted in the modified Stern-Volmer equation to calculate the binding constant, Ka and the number of binding sites per protein molecule (n). All the synthesized acridones have been screened (Supplementary Fig. S6, S7 and Table S3) and those with the highest affinity have been selected (compounds 5, 7b, 7d, 7f and 7h) for further evaluation (Fig. 3). The binding constants of compound 5, 7b, 7d, 7f and 7h were estimated as 6.3 × 10^4 M^−1, 1.0 × 10^6 M^−1, 1.0 × 10^6 M^−1, 1.9 × 10^6 M^−1, and 3.1 × 10^5 M^−1, respectively (Fig. 3).
Figure 3 Fluorescence binding studies of compound 5, 7b, 7d, 7f and 7h with MARK4. (A) Fluorescence emission spectra of MARK4 (10 µM) with increasing concentrations of the respective compound (5, 7b, 7d, 7f and 7h). Excitation wavelength was fixed at 280 nm and emission was recorded in 300–400 nm range. (B) Modified Stern-Volmer plot obtained from fluorescence quenching of MARK4 by compound 5, 7b, 7d, 7f and 7h, respectively. It was used to calculate binding affinity (Ka) and number of binding sites (n).
Binding affinities of synthesized acridone derivatives with recombinant MARK4 was carried out by observing the fluorescence intensity change of emission spectrum of MARK4 by following our previously published protocol[44],[45]. Each titration of protein was performed in triplicates and the average was taken for analysis. A significant decreased in fluorescence intensity of protein with increase in the concentration of acridone derivatives were used as the criteria for deducing the binding constant (Ka) as well as number of binding sites (n) present on the protein molecule using the modified Stern-Volmer equation[46]:1 log(Fo−F)/F=logKa+nlog[L] where, Fo = Fluorescence intensity of native protein, F = Fluorescence intensity of protein in the presence of ligand, Ka = Binding constant, n = number of binding sites, L = concentration of ligand. The values for Ka and n were derived from the intercept and slope, respectively.

The next experiment relates to MCF-7 cells. In words: MTT cell viability assay, MCF-7. In kind it is cell-based. The note with it: Homo sapiens, MCF7. The procedure: (§1) Initially, all synthesized acridone derivatives were evaluated for their cytotoxicity potential on MCF-7, HepG2 and HEK293 cell lines by MTT assay. These synthesized acridone derivatives were screened in the concentration range of 0–200 µM, for 24 and 48 h. […] It was also interesting that in the studied […] concentration range these compounds don’t show considerable cytotoxicity towards HEK293 cell lines. […] Thus, compounds 5, 7b, 7d, 7f and 7h were taken for further cell based studies such as apoptosis and reactive oxygen species (ROS) production.
(§2) To study the effect of synthesized acridone derivatives on cell viability and proliferation, a standard MTT method was carried out. Cells were plated (8000–9000/well) in a 96-well plate and incubated overnight. On the next day, cells were treated with increasing concentrations (0.1–80 μM) of synthesized acridone derivatives in a final volume of 200 µl for 48 h at 37 °C in a humidified chamber. At the end of treatment time point, 20 µl of MTT solution (from 5 mg/ml stock solution in phosphate buffer saline, pH 7.4) was added to each well and incubated further for 4–5 h at 37 °C in the CO2 incubator. After stipulated time the supernatant was aspirated and the colored formazan crystal produced as a result of MTT reduction was dissolved in 100 µl of DMSO. The absorbance (A) of colored product was then measured at 570 nm on a multiplate ELISA reader (BioRad). The percentage of viable cells was calculated and used to estimate the IC50 (50% inhibitory concentration) values for each acridone derivative. For cell proliferation studies paclitaxel has been taken as positive control.

The test system of another experiment is HepG2 cells. In words: MTT cell viability assay, HepG2. In kind it is cell-based. The settings on record: Homo sapiens, Table S2. The procedure:
as §1, §2

The test system of a further experiment is HEK293 cells. The experiment in a line: MTT cell viability assay, HEK293. The format is cell-based. The settings on record: Homo sapiens, Table S2. The procedure: as §1, §2
The mark [1] stands for this setting: MTT, read-out: IC50 for MCF-7 cells.
Where [2] appears, read: Table S3, fluorescence binding, read-out: Binding affinity (Ka) (converted).
[3] abbreviates: Table 1, from MTT, read-out: IC50, (µM), MCF-7.

Like-named read-outs stand apart in the source and are kept apart here. A value given as a limit tells only on which side of the number the result lay.

As to `COC(=O)Cn1c2ccccc2c(=O)c2cc(C)ccc21` [Compound 5, Methyl 2-(2-methyl-9-oxoacridin-10(9H)-yl)acetate], the Kd at recombinant MARK4 (fluorescence quenching, MARK4 10 µM, excitation 280 nm, read-out: binding constant, Ka (converted)) was 15.9 µM. The 50% inhibitory concentration (IC50) in the experiment with MCF-7 cells (setting [1]) was 9.4 ± 1 µM; in the experiment on HepG2 cells, 16.4 µM; in the experiment with HEK293 cells, > 200 µM.

Consider `Cc1ccc2c(c1)c(=O)c1ccccc1n2CC(=O)NCc1ccccc1` [Compound 7b, N-benzyl-2-(2-methyl-9-oxoacridin-10(9H)-yl)acetamide], for which the Kd at recombinant MARK4 (setting [2]) is 1 µM. Further, the half-inhibitory concentration (IC50) is 5.2 ± 1.2 µM in the experiment on MCF-7 cells (setting [3]), 13.6 µM in the experiment on HepG2 cells and > 200 µM in the experiment with HEK293 cells.

Consider `COc1ccc(CNC(=O)Cn2c3ccccc3c(=O)c3cc(C)ccc32)cc1` [Compound 7d, N-(4-methoxybenzyl)-2-(2-methyl-9-oxoacridin-10(9H)-yl)acetamide], for which, on recombinant MARK4 (setting [2]), the Kd is 1 µM. The IC50 was 6.3 ± 1.2 µM with MCF-7 cells (setting [3]), 15.1 µM with HepG2 cells and > 200 µM in the experiment with HEK293 cells.

As to `Cc1ccc(NC(=O)Cn2c3ccccc3c(=O)c3cc(C)ccc32)cc1` [Compound 7f, 2-(2-Methyl-9-oxoacridin-10(9H)-yl)-N-(p-tolyl)acetamide], on recombinant MARK4 (setting [2]), the Kd is 0.526 µM. Also, the IC50 with MCF-7 cells (setting [3]) was 5.8 ± 1.4 µM; in the experiment with HepG2 cells, 15.2 µM; in the experiment on HEK293 cells, > 200 µM.

For `COc1ccccc1NC(=O)Cn1c2ccccc2c(=O)c2cc(C)ccc21` [Compound 7h, N-(2-methoxyphenyl)-2-(2-methyl-9-oxoacridin-10(9H)-yl)acetamide], on recombinant MARK4 (setting [2]), the Kd is 3.23 µM. The half-maximal inhibitory concentration (IC50) in the experiment on MCF-7 cells (setting [1]) was 7.2 ± 1.33 µM; in the experiment on HepG2 cells, 19 µM; in the experiment on HEK293 cells it was > 200 µM.

Source of the values: article PMC6368574, “Probing the Inhibition of Microtubule Affinity Regulating Kinase 4 by N-Substituted Acridones” (Scientific Reports, 2019).
